Measurements as given in ChEMBL document CHEMBL4699438, “Toward the discovery and development of effective modulators of α-synuclein amyloid aggregation” (Eur J Med Chem, 2019).

Legend:
Alpha-synuclein [1] = molecular target: T1, Alpha-synuclein (Homo sapiens, UniProt P37840); assay: Inhibition of alpha-synuclein fibril formation (unknown origin) incubated for 6 days by thioflavin S based fluorescence assay
Alpha-synuclein [2] = molecular target: T1, Alpha-synuclein; assay: Inhibition of human alpha-synuclein filament formation expressed in Escherichia coli BL21(DE3) cells incubated for 72 hrs by thioflavin S based fluorescence assay
Alpha-synuclein [3] = molecular target: T1, Alpha-synuclein; assay: Inhibition of human alpha-synuclein aggregation expressed in Escherichia coli BL21(DE3) cells assessed as percent of un-inhibition measured at 16 hrs by thioflavin T based fluorescence assay relative to control; set-up: concentration or dose not given beside the values
Alpha-synuclein [4] = molecular target: T1, Alpha-synuclein; assay: Inhibition of alpha-synuclein aggregation (unknown origin) incubated for 8 days by thioflavin S based fluorescence assay
Alpha-synuclein [5] = molecular target: T1, Alpha-synuclein; assay: Inhibition of alpha-synuclein fibril formation (unknown origin) incubated for 24 hrs to 7 days by thioflavin S based fluorescence assay
Alpha-synuclein [6] = molecular target: T1, Alpha-synuclein; assay: Inhibition of wild type alpha-synuclein aggregation (unknown origin) expressed in Escherichia coli BL21 cells incubated for 30 days by thioflavin T based fluorescence assay
Alpha-synuclein [7] = molecular target: T1, Alpha-synuclein; assay: Inhibition of wild type human alpha-synuclein fibrillization expressed in Escherichia coli BL21(DE3)pLysS by thioflavin-T based fluorescence assay
Alpha-synuclein [8] = molecular target: T1, Alpha-synuclein; assay: Inhibition of alpha-synuclein aggregation (unknown origin) expressed in Escherichia coli BL21(DE3) cells; conditions: concentration not given here
Alpha-synuclein [9] = molecular target: T1, Alpha-synuclein; assay: Inhibition of alpha-synuclein aggregation (unknown origin) expressed in Escherichia coli BL21(DE3) cells assessed as HFIP-induced protein aggregation measured after 16 to 18 hrs by thioflavin T based fluorescence assay relative to control; set-up: scale not given: the % may be the effect or the level left; conditions: time hrs 16-18
[10] = Elimination half-life in human; format: ADME; conditions: read-out: beta t1/2 (converted)
[11] = molecular target: Amyloid-beta precursor protein (Homo sapiens, UniProt P05067); assay: Inhibition of amyloid beta (1 to 40) (unknown origin) incubated for 24 hrs to 7 days by thioflavin S based fluorescence assay
Amyloid-beta precursor protein, sequence (P05067 whole entry): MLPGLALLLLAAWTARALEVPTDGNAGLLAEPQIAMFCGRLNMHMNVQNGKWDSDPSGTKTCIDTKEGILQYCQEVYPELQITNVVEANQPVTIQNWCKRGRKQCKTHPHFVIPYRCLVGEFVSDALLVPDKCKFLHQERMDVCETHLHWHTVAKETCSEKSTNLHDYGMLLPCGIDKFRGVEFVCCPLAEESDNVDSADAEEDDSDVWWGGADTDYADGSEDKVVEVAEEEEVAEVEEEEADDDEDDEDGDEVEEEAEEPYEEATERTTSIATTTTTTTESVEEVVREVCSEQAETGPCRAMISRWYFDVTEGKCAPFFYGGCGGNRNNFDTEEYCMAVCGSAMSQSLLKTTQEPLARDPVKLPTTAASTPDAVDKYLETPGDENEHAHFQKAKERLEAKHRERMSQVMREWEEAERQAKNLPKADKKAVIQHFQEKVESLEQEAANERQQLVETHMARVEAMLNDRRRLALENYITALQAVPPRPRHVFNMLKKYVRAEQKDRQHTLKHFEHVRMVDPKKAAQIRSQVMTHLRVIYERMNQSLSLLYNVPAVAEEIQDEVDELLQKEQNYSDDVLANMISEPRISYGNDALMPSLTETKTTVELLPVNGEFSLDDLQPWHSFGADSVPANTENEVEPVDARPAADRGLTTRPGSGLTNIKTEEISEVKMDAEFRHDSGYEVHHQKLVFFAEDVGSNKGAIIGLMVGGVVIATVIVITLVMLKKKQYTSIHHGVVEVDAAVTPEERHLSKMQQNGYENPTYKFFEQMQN

## C#CCN(C)[C@H](C)Cc1ccccc1 [SELEGILINE]
Alpha-synuclein [1]
  IC50: 0.27 µM

## O=c1cc(-c2ccc(O)c(O)c2)oc2cc(O)cc(O)c12 [LUTEOLIN]
Alpha-synuclein [2]
  IC50: 28 µM

## H-KKLTVWI-OH
Alpha-synuclein [3]
  Remaining aggregation (% of control): 61%

## CC[C@H](C)[C@H](NC(=O)[C@H](Cc1ccc(O)cc1)NC(=O)[C@H](CCCCN)NC(=O)CNC(=O)[C@H]1CCCN1C(=O)[C@@H](NC(=O)[C@H](Cc1ccc(O)cc1)NC(=O)[C@@H](NC(=O)[C@@H](NC(=O)[C@H](CC(C)C)NC(=O)[C@H](CCCCN)NC(=O)[C@@H](N)CCCCN)[C@@H](C)O)C(C)C)[C@@H](C)CC)C(=O)N[C@H](C(=O)N[C@H](C(=O)N[C@@H](CO)C(=O)N[C@@H](C)C(=O)O)C(C)C)[C@@H](C)O
Alpha-synuclein [3]
  Remaining aggregation (% of control): 18%

## Oc1cc(O)c2c(c1)O[C@H](c1cc(O)c(O)c(O)c1)[C@H](O)C2 [EPIGALLOCATECHIN]
Alpha-synuclein [2]
  IC50: 10.6 µM

## C[C@]12CC[C@@H]3c4ccc(O)cc4CC[C@H]3[C@@H]1CC[C@@H]2O [ESTRADIOL]
Alpha-synuclein [4]
  IC50: 60 µM

## CC(Cc1ccc(O)c(O)c1)C(C)Cc1ccc(O)c(O)c1 (configuration not stated) [NORDIHYDROGUAIARETIC ACID]
Alpha-synuclein [4]
  IC50: 0.21 µM
Alpha-synuclein [5]
  IC50: 0.22 µM

## COc1cc(/C=C/c2cc(/C=C/c3ccc(O)c(OC)c3)[nH]n2)ccc1O [CURCUMIN PYRAZOLE]
Alpha-synuclein [6]
  IC50: 127 µM

## CC[C@H](C)[C@H](NC(=O)[C@H](CO)NC(=O)[C@H](Cc1c[nH]c2ccccc12)NC(=O)[C@@H](NC(=O)[C@H](CC(C)C)NC(=O)[C@H](CCCCN)NC(=O)[C@@H](N)CCCCN)[C@@H](C)O)C(=O)N1CCC[C@@H]1C(=O)NCC(=O)N[C@@H](CCCCN)C(=O)N[C@@H](CCCCN)C(=O)N[C@@H](Cc1c[nH]c2ccccc12)C(=O)N[C@H](C(=O)N[C@H](C(=O)N[C@@H](CO)C(=O)N[C@@H](C)C(=O)O)C(C)C)[C@@H](C)O
Alpha-synuclein [3]
  Remaining aggregation (% of control): 20%

## O=c1c(O)cccc2cc(O)c(O)c(O)c12 [PURPUROGALLIN]
Alpha-synuclein [2]
  IC50: 12.9 µM

## CC1=CC(=O)c2ccccc2C1=O [MENADIONE]
Alpha-synuclein [7]
  IC50: 15 µM

## CC(C)=CCC/C(C)=C/CC/C(C)=C/CC/C(C)=C/CC1=C(C)C(=O)c2ccccc2C1=O [MENATETRENONE]
Alpha-synuclein [7]
  IC50: 15 µM

## O=C(O[C@@H]1Cc2c(O)cc(O)cc2O[C@H]1c1ccc(O)c(O)c1)c1cc(O)c(O)c(O)c1 [(-)-CATECHINGALLATE]
Alpha-synuclein [2]
  IC50: 21.4 µM

## Oc1cc(O)c2c(c1)O[C@H](c1ccc(O)c(O)c1)[C@H](O)[C@H]2c1c(O)cc(O)c2c1O[C@H](c1ccc(O)c(O)c1)[C@H](O)C2 [PROCYANIDIN B2]
Alpha-synuclein [2]
  IC50: 4.3 µM

## CCCN1C[C@H](CSC)C[C@@H]2c3cccc4[nH]cc(c34)C[C@H]21 [PERGOLIDE]
Alpha-synuclein [1]
  IC50: 7.9 µM

## C[C@]12CC[C@@H]3c4ccc(O)cc4CC[C@H]3[C@@H]1CCC2=O [ESTRONE]
Alpha-synuclein [4]
  IC50: 93.1 µM

## O=c1cc(-c2ccccc2)oc2cc(O)c(O)c(O)c12 [BAICALEIN]
Alpha-synuclein [2]
  IC50: 8.2 µM

## CCC(=O)N[C@@H](Cc1c[nH]c2ccccc12)C(=O)N[C@H](C(=O)N1CCC[C@@H]1C(=O)NCC(=O)N[C@@H](CCCCN)C(=O)N[C@@H](Cc1c[nH]c2ccccc12)C(=O)N[C@H](C(=O)NCC(N)=O)[C@@H](C)O)[C@@H](C)CC
Alpha-synuclein [8]
  inhibition: 50%
Alpha-synuclein [9]
  Activity: 37%
Alpha-synuclein [3]
  Remaining aggregation (% of control): 69%

## Oc1cc(O)c2c(c1)O[C@H](c1cc(O)c(O)c(O)c1)[C@@H](O)C2 [GALLOCATECHIN]
Alpha-synuclein [2]
  IC50: 8.9 µM

## CC1=C(C/C=C(\C)CCC[C@H](C)CCC[C@H](C)CCCC(C)C)C(=O)c2ccccc2C1=O [PHYTONADIONE]
Alpha-synuclein [7]
  IC50: 15 µM

## O=C1C=CC(=O)c2ccccc21 [NAPHTHOQUINONE]
Alpha-synuclein [7]
  IC50: 15 µM

## O=C(/C=C/c1ccc(O)c(O)c1)O[C@H](Cc1ccc(O)c(O)c1)C(=O)O [ROSMARINIC ACID]
Alpha-synuclein [5]
  IC50: 0.21 µM

## O=C(O[C@@H]1Cc2c(O)cc(O)cc2O[C@@H]1c1ccc(O)c(O)c1)c1cc(O)c(O)c(O)c1 [EPICATECHIN GALLATE]
Alpha-synuclein [2]
  IC50: 9.8 µM
[10]
  half-life: 3.4 h

## CC1=C(/C=C/C(C)=C/C=C/C(C)=C/CO)C(C)(C)CCC1 [RETINOL]
[11]
  IC50: 0.18 µM
Alpha-synuclein [5]
  IC50: 0.19 µM

## CO[C@H]1/C=C/O[C@@]2(C)Oc3c(C)c(O)c4c(O)c(c(/C=N/N5CCN(C)CC5)c(O)c4c3C2=O)NC(=O)/C(C)=C\C=C\[C@H](C)[C@H](O)[C@@H](C)[C@@H](O)[C@@H](C)[C@H](OC(C)=O)[C@@H]1C [RIFAMPIN]
Alpha-synuclein [2]
  IC50: 46.2 µM
Alpha-synuclein [5]
  IC50: 7.1 µM

## O=c1c(O)c(-c2ccc(O)c(O)c2)oc2cc(O)cc(O)c12 [QUERCETIN]
Alpha-synuclein [2]
  IC50: 20 µM

## Oc1cc(O)c2cc(O)c(-c3cc(O)c(O)c(O)c3)[o+]c2c1 [DELPHINIDIN CHLORIDE]
Alpha-synuclein [2]
  IC50: 6.5 µM

## C[C@]12CCC(=O)C=C1CC[C@@H]1[C@@H]2CC[C@]2(C)C(=O)CC[C@@H]12 [ANDROSTENEDIONE]
Alpha-synuclein [4]
  IC50: 85.9 µM

## Oc1cc(O)c2cc(O)c(-c3ccc(O)c(O)c3)[o+]c2c1 [CYANIDIN CHLORIDE]
Alpha-synuclein [2]
  IC50: 10.3 µM

## C[C@]12CC[C@H]3[C@@H](CCC4=CC(=O)CC[C@@]43C)[C@@H]1CC[C@@H]2O [TESTOSTERONE]
Alpha-synuclein [4]
  IC50: 96.8 µM

## C[C@]12CC[C@@H]3c4ccc(O)cc4CC[C@H]3[C@@H]1C[C@@H](O)[C@@H]2O [ESTRIOL]
Alpha-synuclein [4]
  IC50: 20.1 µM

## COc1cc(/C=C/c2cc(/C=C/c3ccc(O)c(OC)c3)n(-c3cccc([N+](=O)[O-])c3)n2)ccc1O
Alpha-synuclein [6]
  IC50: 89.1 µM

## CN(C)[C@@H]1C(O)=C(C(N)=O)C(=O)[C@@]2(O)C(O)=C3C(=O)c4c(O)cccc4[C@@](C)(O)[C@H]3C[C@@H]12 [TETRACYCLINE]
Alpha-synuclein [5]
  IC50: 6.06 µM

## Oc1cc(O)c2c(c1)O[C@H](c1ccc(O)c(O)c1)[C@H](O)C2 [(-)-EPICATECHIN]
Alpha-synuclein [2]
  IC50: 29.9 µM
Alpha-synuclein [5]
  IC50: 0.8 µM

## CC1=C(/C=C/C(C)=C/C=C/C(C)=C/C=O)C(C)(C)CCC1 [RETINAL]
[11]
  IC50: 0.18 µM
Alpha-synuclein [5]
  IC50: 0.19 µM

## Cc1cc(O)c2c(=O)c3c(O)cc(O)c4c5c(O)cc(O)c6c(=O)c7c(O)cc(C)c8c1c2c(c34)c(c78)c65 [HYPERICIN]
Alpha-synuclein [2]
  IC50: 7.5 µM

## Oc1cc(O)c2c(c1)O[C@H](c1ccc(O)c(O)c1)[C@H](O)[C@H]2c1c(O)cc(O)c2c1O[C@H](c1ccc(O)c(O)c1)[C@@H](O)C2 [PROCYANIDIN B1]
Alpha-synuclein [2]
  IC50: 7.3 µM

## H-KTWNAAAGKWTE-OH
Alpha-synuclein [3]
  Remaining aggregation (% of control): 81%

## CC[C@H](C)[C@H](NC(=O)[C@H](Cc1c[nH]c2ccccc12)NC(=O)[C@H](CCCCN)NC(=O)CNC(=O)[C@H]1CCCN1C(=O)[C@@H](NC(=O)[C@H](Cc1c[nH]c2ccccc12)NC(=O)[C@@H](NC(=O)[C@@H](NC(=O)[C@H](CC(C)C)NC(=O)[C@H](CS)NC(=O)[C@@H](N)CCCCN)[C@@H](C)O)C(C)C)[C@@H](C)CC)C(=O)N[C@H](C(=O)N[C@H](C(=O)N[C@@H](CS)C(=O)N[C@@H](C)C(=O)O)C(C)C)[C@@H](C)O
Alpha-synuclein [8]
  inhibition: 50%
Alpha-synuclein [9]
  Activity: 49%

## O=c1c(O)c(-c2cc(O)c(O)c(O)c2)oc2cc(O)cc(O)c12 [MYRICETIN]
Alpha-synuclein [2]
  IC50: 13.3 µM
Alpha-synuclein [5]
  IC50: 0.22 µM

## O=C(O[C@@H]1Cc2c(O)cc(O)cc2O[C@H]1c1cc(O)c(O)c(O)c1)c1cc(O)c(O)c(O)c1 [GALLOCATECHIN GALLATE]
Alpha-synuclein [2]
  IC50: 3.6 µM

## COc1cc(/C=C/C(=O)O)ccc1O [FERULATE]
Alpha-synuclein [5]
  IC50: 0.75 µM

## NCCc1ccc(O)c(O)c1 [DOPAMINE]
Alpha-synuclein [2]
  IC50: 7.1 µM
Alpha-synuclein [1]
  IC50: 0.53 µM

## CC1=C(/C=C/C(C)=C/C=C/C(C)=C/C(=O)O)C(C)(C)CCC1 [TRETINOIN]
[11]
  IC50: 0.18 µM
Alpha-synuclein [5]
  IC50: 3 µM

## CC(C)C[C@H]1C(=O)N2CCC[C@H]2[C@]2(O)O[C@](NC(=O)[C@@H]3C=C4c5cccc6[nH]c(Br)c(c56)C[C@H]4N(C)C3)(C(C)C)C(=O)N12 [BROMOCRIPTINE]
Alpha-synuclein [1]
  IC50: 24.7 µM

## CC[C@H](C)[C@H](NC(=O)[C@H](Cc1c[nH]c2ccccc12)NC(=O)[C@H](CCCCN)NC(=O)CNC(=O)[C@H]1CCCN1C(=O)[C@@H](NC(=O)[C@H](Cc1c[nH]c2ccccc12)NC(=O)[C@@H](NC(=O)[C@@H](NC(=O)[C@H](CC(C)C)NC(=O)[C@H](CCCCN)NC(=O)[C@@H](N)CCCCN)[C@@H](C)O)C(C)C)[C@@H](C)CC)C(=O)N[C@H](C(=O)N[C@H](C(=O)N[C@@H](CO)C(=O)N[C@@H](C)C(=O)O)C(C)C)[C@@H](C)O
Alpha-synuclein [8]
  inhibition: 75%
Alpha-synuclein [9]
  Activity: 27%
Alpha-synuclein [3]
  Remaining aggregation (% of control): 19%

## CC[C@H](C)[C@H](NC(=O)[C@H](Cc1c[nH]c2ccccc12)NC(=O)[C@H](CCCCN)NC(=O)CN)C(=O)N[C@H](C(=O)N[C@H](C(=O)N[C@@H](CO)C(=O)N[C@H](C(=O)N1CCC[C@@H]1C(=O)N1CCC[C@H]1C(=O)N[C@@H](CCCCN)C(=O)N[C@@H](CCCCN)C(=O)N[C@@H](CC(C)C)C(=O)N[C@H](C(=O)N[C@H](C(=O)N[C@@H](Cc1c[nH]c2ccccc12)C(=O)N[C@H](C(=O)N1CCC[C@@H]1C(=O)O)[C@@H](C)CC)C(C)C)[C@@H](C)O)[C@@H](C)CC)C(C)C)[C@@H](C)O
Alpha-synuclein [8]
  inhibition: 65%
Alpha-synuclein [9]
  Activity: 34%
